Laboratory results: patent US20130136772A1, “REGULATION OF IMMUNE RESPONSE BY COLOCYNTHIN AND/OR ITS DERIVATIVES” (priority 2010, published 2013)
Several values for one entry are separate records, joined by “and”; a condition that tells them apart may be missing. Equal entries are not always repeated.

Legend:
Type in all cases: cell-based
[1] = test system: peritoneal murine macrophages; assay: Phagocytosis of heat killed Candida albicans by murine macrophages (in vitro)
Protocol: The method of Lehrer (1981) [Lehrer, R. I. Ingestion and destruction of Candida albicans. (1981) In: Methods for studying mono-nuclear phagocytes. Eds. Adams, D. O., Edelson, P. J. and Koren, H. (Academic Press, New York) 693-7081 was followed. The percentage and average number of Candida albicans cells (heatkilled) ingested by peritoneal murine macrophages was calculated. AD-B-63B was tested at the doses of 1, 2.5, Sand 10 μg/mL (Table 4).

TNF-α = assay: Intracellular TNF-α estimation in LPS activated murine neutrophils by flowcytometry; settings: for Expression of intracellular TNF-alpha, Mean ± S.E: LPS 10 ng/ml, 3 h
Protocol: Flowcytometric studies were carried out to determine the anti-inflammatory effect of AD-B-63B on TNF-α cytokine expression in LPS activated murine neutrophils. Neutrophils play essential roles in host defence through their ability to clear bacterial infections. Their inappropriate activation contributes to a variety of inflammatory diseases, from the acute respiratory distress syndrome to asthma, chronic obstructive pulmonary disease and rheumatoid arthritis. TNF-α was chosen as the target for anti-inflammatory activity because of the fact that it is a pro-inflammatory cytokine and plays a major role in the pathogenesis of septic shock induced by LPS (Lipopolysaccharide) endotoxin injection [Remick, D. G.; Strieter, R. M.; Eskandari, M. K.; Nguyen, D. T.; Genord, M. A.; Raiford, C. L. Am. J. Path. 1990, 136, 49.]. LPS is an important triggering factor for in vivo systemic inflammatory response [Bone, R. C. Chest 1991, 100, 802]. LPS activates neutrophils via engagement of TLR4 (Toll-like receptor 4),[Sabroe, I.; Read, R. C.; Whyte, M. K. B.; Dockrell, D. H.; Vogel, S. N.; Dower, S. K. J. Immunol. 2003, 171, 1630.] resulting in the induction of a characteristic pro-inflammatory phenotype and prolongation of cell lifespan [Lee, A.; Whyte, M. K. B.; Haslett, C. J. Leukoc. Biol. 1993, 54, 283].
The anti-inflammatory activity of AD-B-63B was measured by the estimation of intracellular tumor necrosis factor alpha (TNF-α) expression in a gated population of neutrophils [Clara, B., R. C. Arancha, G. M. Andre's, P. Atanasio, A. Julia, and O. Alberto. 2003. A new method for detecting TNF-α-secreting cells using direct immunofluorescence surface membrane stainings. J. Immuno. Methods 264:77-87.]. Murine blood was subjected to centrifugation at 250× g for 20 min. Three layers were formed: an upper layer of platelet-rich plasma, a buffy coat middle layer and a lower layer formed of red blood cells. The middle layer was removed and subjected to Histopaque 1077 (Sigma) gradient separation. The upper layer containing neutrophils was removed and transferred to FACS tubes (Becton Dickinson). Lipopolysaccharide (LPS) derived from Escherichia coli (Sigma) was added at a concentration of 10 ng/ml for the stimulation of the cells. AD-B-63B was added at graded concentrations of 0.5, 1, 2.5, 5, 10 and 20 μg/ml. Samples were incubated for 3 h at 37° C. ( Table 1) Controls consisted of LPS-stimulated cells (LPS control). Further processing was done by the addition of FACS permeabilizing solution (Becton Dickinson), followed by the addition of phycoerythrin (PE)-labeled anti-mouse TNF-α. (Becton Dickinson). The cells were incubated in the dark, and after being washed with sterile PBS, samples were resuspended in PBS (pH 7.4) and acquired directly on the flow cytometer (FACS CANTO; Becton Dickinson). A fluorescence trigger was set on the […] parameter of the gated neutrophil populations (10,000 events). Rolipram at 100 μg/ml was used as standard inhibitor of TNF-α in this study. Fluorescence compensation, data analysis and data presentation were performed using software (Becton Dickinson) (FIG. 1) [Pandey A, Bani S, Kaul S, Sangawan P L; 2010, Selective Th1 upregulation by ethyl acetate fraction of Labisia pumila; 132 (2010) 309-315].

[2] = test system: Interleukin-1beta (IL-1β); assay: Extracellular IL-1β in LPS stimulated murine neutrophils (ELISA, in vitro); settings: for Concentration of IL-1β produced Mean ± S.E.: LPS 10 ng/ml, 4 hr
Protocol: Neutrophils were separated from whole blood by Histopaque gradient method (Histopaque-No. 1077). Cell count was adjusted to approximately 10^5/[…]. Lipopolysaccharide, at the concentration of 10 ng/ml was used as stimulus in in-vitro studies. […] Extracellular IL-1β was estimated through ELISA (Table 2) [Weir, R. E., Morgan, A. R., Britton, W. J., Butlin, C. R., Dockrell, H. M., 1994. Development of a whole blood assay to measure T cell responses to leprosy: a new tool for immuno-epidemiological fields studies of leprosy immunity. J. Immunol. Methods. 176, 93; Hussain, R., Kaleem, A., Shahid, F., Dojki, M., Jamil, B., Mehmood, H., Dawood, G., Dockrell, H., 2002. Cytokine profiles using whole blood assays can discriminate between tuberculosis patients and healthy endemic controls in a BCG-vaccinated population. J. Immunol. Methods. 264, 95-108]

CC(=O)OC(C)(C)/C=C/C(=O)[C@](C)(O)[C@H]1[C@H](O)C[C@@]2(C)[C@@H]3CC=C4[C@@H](C=C(O[C@@H]5O[C@H](CO)[C@@H](O)[C@H](O)[C@H]5O)C(=O)C4(C)C)[C@]3(C)C(=O)C[C@]12C [AD-B-63B, 2-O-β-D-glucopyranosyl cucurbitacin E]
% phagocytosis [in vitro study] Mean ± S.E. ([1]; 1 μg/ml): 24.00 ± 2.32%
percent decrease in phagocytosis ([1]; 1 μg/ml): (10.48%↓)
% phagocytosis [in vitro study] Mean ± S.E. ([1]; 5 μg/ml): 18.22 ± 2.11%
% phagocytosis [in vitro study] Mean ± S.E. ([1]; 10 μg/ml): 17.33 ± 1.42%
% TNF-alpha inhibition against LPS control (TNF-α; 0.5 μg/ml): 13.01↓ %
Expression of intracellular TNF-alpha, Mean ± S.E (TNF-α; 0.5 μg/ml): 2.34 ± 0.07
% TNF-alpha inhibition against LPS control (TNF-α; 1.0 μg/ml): 24.16↓ %
Expression of intracellular TNF-alpha, Mean ± S.E (TNF-α; 1.0 μg/ml): 2.04 ± 0.06
% TNF-alpha inhibition against LPS control (TNF-α; 5.0 μg/ml): 50.55%
Expression of intracellular TNF-alpha, Mean ± S.E (TNF-α; 5.0 μg/ml): 1.33 ± 0.06
% TNF-alpha inhibition against LPS control (TNF-α; 10.0 μg/ml): 60.59%
Expression of intracellular TNF-alpha, Mean ± S.E (TNF-α; 10.0 μg/ml): 1.06 ± 0.03
Expression of intracellular TNF-alpha, Mean ± S.E (TNF-α; […]): 1.84 ± 0.03
% activity IL-1β expression against LPS control (decrease) ([2]; 0.5 μg/ml): 10.25↓ %
Concentration of IL-1β produced Mean ± S.E. ([2]; 0.5 μg/ml): 120.91 ± 2.61 pg/mL
% activity IL-1β expression against LPS control (decrease) ([2]; 1 μg/ml): 18.66↓ %
Concentration of IL-1β produced Mean ± S.E. ([2]; 1 μg/ml): 109.58 ± 3.21 pg/mL
% activity IL-1β expression against LPS control (decrease) ([2]; 5.0 μg/ml): 30.90% and 30.90↓ %
Concentration of IL-1β produced Mean ± S.E. ([2]; 5.0 μg/ml): 93.08 ± 2.61 pg/mL
% activity IL-1β expression against LPS control (decrease) ([2]; 10.0 μg/ml): 34.96% and 34.96↓ %
Concentration of IL-1β produced Mean ± S.E. ([2]; 10.0 μg/ml): 87.61 ± 1.99 pg/mL
Concentration of IL-1β produced Mean ± S.E. ([2]; […]): 106.66 ± 2.44 pg/mL
